{"source": "PubChem BioAssay AID1924", "about": "(Vanderbilt High Throughput Screening Facility, 2009)", "test_system": "Vesicular inhibitory amino acid transporter (Rattus norvegicus) + Acetylcholine receptor subunit alpha (Homo sapiens) + Estrogen receptor (Homo sapiens) + Glucocorticoid receptor (Homo sapiens) + Sodium channel protein type 1 subunit alpha (Rattus norvegicus) + Beta-2 adrenergic receptor (Homo sapiens) + Muscarinic acetylcholine receptor M2 (Homo sapiens) + Beta-1 adrenergic receptor (Homo sapiens) + 5-hydroxytryptamine receptor 1A (Homo sapiens) + Alpha-2A adrenergic receptor (Homo sapiens) + Muscarinic acetylcholine receptor M1 (Homo sapiens) + Interleukin-1 receptor type 1 (Mus musculus) + D(2) dopamine receptor (Homo sapiens) + Androgen receptor (Rattus norvegicus) + Gamma-aminobutyric acid receptor subunit gamma-2 (Rattus norvegicus) + Muscarinic acetylcholine receptor M3 (Homo sapiens) + D(1A) dopamine receptor (Homo sapiens) + D(4) dopamine receptor (Homo sapiens) + Glutamate receptor ionotropic, kainate 1 (Rattus norvegicus) + Sodium-dependent noradrenaline transporter (Homo sapiens) + Endothelin receptor type B (Homo sapiens) + Alpha-1D adrenergic receptor (Homo sapiens) + Endothelin-1 receptor (Homo sapiens) + Substance-P receptor (Homo sapiens) + Neuropeptide Y receptor type 1 (Homo sapiens) + Adenosine receptor A2a (Homo sapiens) + B2 bradykinin receptor (Homo sapiens) + Adenosine receptor A1 (Homo sapiens) + Sodium-dependent serotonin transporter (Homo sapiens) + Neuronal acetylcholine receptor subunit alpha-3 (Homo sapiens) + Histamine H1 receptor (Homo …", "assay": "off-target activity at receptors, channels, transporters, profiling panel, selectivity assay for ROMK channel modulator project, biochemical, MDS panel (AID 1924)", "details": "MDS Pharma lead profiling binding panel, at 10 µM, stronger effect = higher value"}
{"smiles": "O=[N+]([O-])c1ccc2nc(COCc3nc4ccc([N+](=O)[O-])cc4[nH]3)[nH]c2c1", "values": [{"measurement": "inhibition", "result": 75, "unit": "%"}, {"measurement": "inhibition", "setting": "measured here: Adenosine A1 human binding", "result": 14, "unit": "%"}, {"measurement": "inhibition", "setting": "measured here: Adenosine A3 human binding", "result": 21, "unit": "%"}, {"measurement": "inhibition", "setting": "measured here: Adrenergic a2A human binding", "result": 14, "unit": "%"}, {"measurement": "inhibition", "setting": "measured here: Adrenergic b2 human binding", "result": 9, "unit": "%"}, {"measurement": "inhibition", "setting": "measured here: Bradykinin B2 human binding", "result": -16, "unit": "%"}, {"measurement": "inhibition", "setting": "measured here: Calcium channel L-type BTZ rat", "result": 22, "unit": "%"}, {"measurement": "inhibition", "setting": "measured here: Calcium channel L-type DHP rat", "result": 26, "unit": "%"}, {"measurement": "inhibition", "setting": "measured here: Calcium channel N-type rat", "result": 0, "unit": "%"}, {"measurement": "inhibition", "setting": "measured here: Dopamine D1 human binding", "result": -2, "unit": "%"}, {"measurement": "inhibition", "setting": "measured here: Dopamine D2S human binding", "result": -6, "unit": "%"}, {"measurement": "inhibition", "setting": "measured here: Dopamine D3 human binding", "result": 1, "unit": "%"}, {"measurement": "inhibition", "setting": "measured here: Estrogen ER alpha human binding", "result": 1, "unit": "%"}]}
